{"source": "patent US11419834B2", "about": "“Methods for treating diseases or infections caused by or associated with H. pylori using a halogenated salicylanilide” (Rhode Island Hospital, priority 2019, dated 2022)", "key": {"[1]": {"test_system": "H. pylori bacteria", "test": "Scanning electron microscopy of morphology", "type": "cell-based, Helicobacter pylori"}, "[2]": {"test_system": "AGS cells invaded by H. pylori", "test": "Invasion, gentamicin protection assay", "type": "cell-based, Helicobacter pylori", "details": "0.1 μg/mL, 20 hours, AGS cells", "method": "(§1) The AGS (Gastric adenocarcinoma cell lines) cell line was used to examine inhibition of adhesion and invasion of H. pylori (strain 60190) by niclosamide, as described by Schmitt et al. (Front Cell Infect Microbiol. 2013; 3:93). The AGS cells were grown in Dulbecco's Modified Eagle Medium (DMEM, ex. Gibco), supplemented with 10% fetal bovine serum (Gibco) and 1% penicillin/streptomycin (Gibco) and maintained at 37° C. in 5% C02. Then, 5×10^5 cells in antibiotic and serum-free DMEM were seeded in 6-well plates 24 hours prior to infection. H. pylori bacteria at a multiplicity of infection (MOI)=100 were added and allowed to adhere to the surface of the AGS cells. Planktonic bacteria were removed after 2 hours and DMEM with niclosamide (2×MIC) was then added to the wells containing the AGS. The mammalian cells were lysed by 0.1% saponin after 20 hours of incubation and the adhered bacteria were then serially diluted, plated in Brucella agar supplemented with 10% FBS, and incubated as described above. A control arm of DMSO and a comparator using amoxicillin at a concentration of 0.1 μg/mL (10×MIC) was also assessed. […]"}, "[3]": {"test_system": "H. pylori strain 60190", "test": "Minimum bactericidal concentration (plating from MIC assay)", "type": "cell-based, Helicobacter pylori"}, "[4]": {"test_system": "H. pylori bacteria (strain 60190)", "test": "Multi-step mutation frequency (serial passage resistance study)", "type": "cell-based, Helicobacter pylori", "details": "for increase in MIC during continuous passage: passaged sequentially over 30 days", "method": "To determine whether H. pylori can develop resistance against niclosamide, bacterial cells were suspended in MHB with 10% FBS at OD600=0.06 in the presence of serially diluted niclosamide and incubated, as described in the antibiotic susceptibility assays sub-section. The standard antibiotics amoxicillin and clarithromycin were used as controls. From the highest drug concentration allowing visible growth at sub-MIC concentration, aliquots were diluted (1:40) into fresh medium. These were used to inoculate the second set of serial drug dilutions as described by Dalhoff et al. (Clin Infect Ds. 2001 Mar. 15; 32 Suppl, 1:S16-22). After a 3-day incubation, H. pylori bacteria (strain 60190) were passaged sequentially over 30 days and the OD was recorded."}, "[5]": {"test_system": "H. pylori (strain 60190)", "test": "Checkerboard synergy assay (FICI)", "type": "cell-based, Helicobacter pylori", "details": "for FICI value Niclosamide: test compound in combination with niclosamide", "method": "References to “synergy” of the halogenated salicylanilide with other therapeutic agents described herein refer to an activity which is greater than the sum of the individual agents used alone. The degree of antimicrobial synergy may be assessed by calculating the fractional inhibitory concentration index (FICI) using the checkerboard assay described in the Examples herein. For two agents A and B, the FICI is calculated as: FICI=MICA-B in combination/(MICA alone+MICB alone) Synergy occurs when the FICI is ≤0.5; partial synergy for 0.5≤FICI≤1.0; no interaction […]; and antagonism FICI >4.0.\nAntibacterial synergy was tested using the checkerboard assay using the method described in Zheng Z et al. (Antimicrob. Agents Chemother. 2017 July; 61(7)).\nNiclosamide was combined with antibiotics and proton pump inhibitors (PPIs). Cultures of H. pylori (strain 60190) were adjusted to OD600=0.06 and added to compound pairs that had been serially diluted in the same 96-well plates, vertically for one compound and horizontally for the other. Assays were carried out in triplicate as described in the antibacterial susceptibility assay described above. The combinatorial inhibitory concentration was indicated by the fractional inhibitory concentration index (FICI): FICI=MICA combination/MICA alone+MICB combination/MICB alone Paired combinations of compounds and their observed FICI are listed in Table 4. Synergistic activity, where the combined antibacterial effect of the 2 antimicrobial agents is more than the sum of their effects alone, is defined by FICI 0.5, antagonism by FICI >4.0 and ‘no interaction’ by FICI >0.5-4.0."}, "[6]": {"test_system": "H. pylori (strain 60190)", "test": "Effect of pH on MIC (broth microdilution)", "type": "cell-based, Helicobacter pylori", "details": "pH 7.0 to 5.2", "method": "The pH was adjusted to acidic condition with 1 N HCl. The minimal bactericidal concentration (MBC) was determined by plating 5 μL of broth culture from the MIC assay onto Müller-Hinton agar (BD Biosciences) supplemented with 10% FBS. After 72 h, the lowest concentration at which colonies were not observed was reported as the MBC."}, "[7]": {"test_system": "H. pylori (strain 60190) adhered to AGS cells", "test": "Adhesion of H. pylori to AGS cells", "type": "cell-based, Helicobacter pylori", "details": "0.1 μg/mL (10×MIC)", "method": "as §1"}, "[8]": {"test_system": "H. Pylori 49503", "test": "Broth microdilution assay, MIC", "type": "cell-based", "details": "Helicobacter pylori; strain H. Pylori 49503"}, "[9]": {"test_system": "H. Pylori 51932", "test": "Broth microdilution assay, MIC", "type": "cell-based", "details": "Helicobacter pylori; strain H. Pylori 51932"}, "[10]": {"test_system": "IL-8 secretion from MKN-28 cells co-cultured with H. pylori", "test": "IL-8 secretion, real-time RT-PCR", "type": "cell-based", "details": "10× MIC, H. pylori infected MKN-28 cells", "method": "Real-Time (RT-PCR) was carried out to determine whether niclosamide has an inhibitory role in IL-8 secretion. MKN-28 cells were co-cultured with H. pylori (MOI=100) in the presence or absence of a test compound. At 24 hours, RNA was isolated from the infected host cells. cDNA was synthesized using the Verso cDNA (Invitrogen) synthesis kit according to manufacturer instructions. Quantitative real-time reactions were carried out in a Bio-Rad iTaq universal SYBR (Bio-Rad, Hercules, Calif. USA) one-step kit and a CFX98 real-time PCR cycler as described by Zheng et al. (Future Med. Chem. 2018, February; 10(3):283-296). The relative gene expression was calculated from Cq values using a ΔΔCq method."}, "[11]": {"test_system": "H. pylori reference strain 60190 (ATCC 49503)", "test": "Broth microdilution assay, MIC", "type": "cell-based", "details": "Helicobacter pylori, ATCC49503, 72 h; H. pylori strain 60190; Müller-Hinton broth + 10% FBS, 3 days"}, "[12]": {"test_system": "H. Pylori 43504", "test": "Broth microdilution assay, MIC", "type": "cell-based", "details": "Helicobacter pylori; strain H. Pylori 43504"}, "[13]": {"details": "Helicobacter pylori, H. pylori strain 60190, read-out: MBC"}}, "note": "Where two headings read alike, the source gives them in different places.", "data": [{"smiles": "CC1(C)S[C@@H]2[C@H](NC(=O)[C@H](N)c3ccc(O)cc3)C(=O)N2[C@H]1C(=O)O", "note": "[Amoxicillin, amoxicillin]", "values": [{"measurement": "morphology by SEM", "setting": "[1]; 0.1 μg/mL (10×MIC)", "value": "morphological changes and decreased cell size"}, {"measurement": "effect on intracellular bacteria", "setting": "[2]", "value": "eliminated bacteria completely"}, {"measurement": "MBC", "setting": "[3]; [13]", "value": 0.5, "unit": "µg/mL"}, {"measurement": "change in MIC through at least 10 passages", "setting": "[4]", "value": 2, "unit": "fold"}, {"measurement": "increase in MIC during continuous passage", "setting": "[4]", "value": 2, "unit": "fold"}, {"measurement": "FICI value Niclosamide", "setting": "[5]", "value": 2.0}, {"measurement": "change of MIC at acidic pH compared to pH 7.0", "setting": "[6]", "value": "increased"}, {"measurement": "effect on bacterial adhesion", "setting": "[7]", "value": "eliminated bacterial adhesion completely"}, {"measurement": "MIC", "setting": "[8]", "value": 0.01, "unit": "µg/mL"}, {"measurement": "MIC", "setting": "[9]", "value": 0.01, "unit": "µg/mL"}, {"measurement": "effect on IL-8 secretion", "setting": "[10]", "value": "inhibited IL-8 secretion"}, {"measurement": "MIC", "setting": "[11]", "value": 0.01, "unit": "µg/mL"}, {"measurement": "MIC", "setting": "[12]", "value": 0.03, "unit": "µg/mL"}]}, {"smiles": "N#CC(C#N)=NNc1cccc(Cl)c1", "note": "[CCCP, carbonyl cyanide m-chlorophenylhydrazone]", "values": [{"measurement": "morphology by SEM", "setting": "[1]; 10 μM", "value": "morphological changes and decreased cell size"}]}, {"smiles": "CC[C@H]1OC(=O)[C@H](C)[C@@H](O[C@H]2C[C@@](C)(OC)[C@@H](O)[C@H](C)O2)[C@H](C)[C@@H](O[C@@H]2O[C@H](C)C[C@H](N(C)C)[C@H]2O)[C@](C)(OC)C[C@@H](C)C(=O)[C@H](C)[C@@H](O)[C@]1(C)O", "note": "[Clarithromycin, clarithromycin]", "values": [{"measurement": "MBC", "setting": "[3]; [13]", "value": 0.25, "unit": "µg/mL"}, {"measurement": "change in MIC through at least 10 passages", "setting": "[4]", "value": 2, "unit": "fold"}, {"measurement": "exposure time after which MIC increased", "setting": "[4]; continuous exposure, 30 day study", "value": "> 24", "unit": "days"}, {"measurement": "increase in MIC during continuous passage", "setting": "[4]", "value": 4, "unit": "fold"}, {"measurement": "FICI value Niclosamide", "setting": "[5]", "value": 1.0}, {"measurement": "change of MIC at acidic pH compared to pH 7.0", "setting": "[6]", "value": "increased"}, {"measurement": "MIC", "setting": "[8]", "value": 0.0025, "unit": "µg/mL"}, {"measurement": "MIC", "setting": "[9]", "value": 0.005, "unit": "µg/mL"}, {"measurement": "MIC", "setting": "[11]", "value": 0.0025, "unit": "µg/mL"}, {"measurement": "MIC", "setting": "[12]", "value": 0.005, "unit": "µg/mL"}]}, {"smiles": "Cc1cc(C(C#N)c2ccc(Cl)cc2)c(Cl)cc1NC(=O)c1cc(I)cc(I)c1O", "note": "(stereo not shown) [Closantel, closantel]", "values": [{"measurement": "MBC", "setting": "[3]; H. pylori strain 60190", "value": 16.0, "unit": "µg/mL"}, {"measurement": "MBC", "setting": "[3]; [13]", "value": 16, "unit": "µg/mL"}, {"measurement": "MIC", "setting": "[11]", "value": 16, "unit": "µg/mL"}]}, {"smiles": "Cc1ncc([N+](=O)[O-])n1CCO", "note": "[Metronidazole, metronidazole]", "values": [{"measurement": "interaction with niclosamide", "setting": "[5]; combination with niclosamide", "value": "partially synergistic"}, {"measurement": "FICI value Niclosamide", "setting": "[5]", "value": 0.75}]}, {"smiles": "COc1ccc2[nH]c([S+]([O-])Cc3ncc(C)c(OC)c3C)nc2c1", "note": "(stereo not shown) [Omeprazole, omeprazole]", "values": [{"measurement": "FICI value Niclosamide", "setting": "[5]", "value": 0.625}]}, {"smiles": "O=C(Nc1cc(Cl)cc(Cl)c1O)c1c(O)c(Cl)cc(Cl)c1Cl", "note": "[Oxyclozanide, oxyclozanide]", "values": [{"measurement": "MBC", "setting": "[3]; [13]", "value": 4, "unit": "µg/mL"}, {"measurement": "MIC", "setting": "[11]", "value": 2, "unit": "µg/mL"}]}, {"smiles": "COc1ccnc(C[S+]([O-])c2nc3ccc(OC(F)F)cc3[nH]2)c1OC", "note": "(stereo not shown) [Pantoprazole, pantoprazole]", "values": [{"measurement": "FICI value Niclosamide", "setting": "[5]", "value": 0.75}]}, {"smiles": "O=C(Nc1ccc(Oc2ccc(Cl)cc2)c(Cl)c1)c1cc(I)cc(I)c1O", "note": "[Rafoxanide, rafoxanide]", "values": [{"measurement": "MBC", "setting": "[3]; Helicobacter pylori, 60190", "value": 8, "unit": "µg/mL"}]}]}
